Literature values, collected in patent publication US6562869B1, “Nutritional supplement for increased energy and stamina” (Juvenon, Inc., priority 1999, dated 2003).
Where two headings read alike, the source gives them in different places.

Experiments:
oxidant production = settings: carnitine supplementation
skeletal muscle = settings: older individuals aged 40-73, 20 g/day, one week
[1] = men over 60, 5 days
[2] = older adults 67-80 years, 8 weeks
[3] = tested on: carnitine-acyl-carnitine exchange across the inner mitochondrial membrane
[4] = parameters: dose or concentration left out as unconfirmed; settings: woman deficient in Q10
[5] = tested on: human plasma LDL phospholipids; settings: healthy Finnish men and women aged 28-77, supplementation
apoptosis = settings: through its action in the mitochondria
striatal nerves = settings: Q10 diet four weeks before and one week after MPTP
male mice = settings: life-long supplementation
[6] = daily up to 200 mg for 6 to 12 months and 100 mg daily for up to 6 years
[7] = tested on: oxidative phosphorylation in skeletal muscles and brains; settings: patients with mitochondrial cytopathies due to enzyme defects
senescent myocardium = settings: rats

SMILES: C[N+](C)(C)CC(O)CC(=O)[O-] (centres unmarked) [carnitine]
- cell antioxidants (oxidant production): decreased cell antioxidants markedly
- oxidant production increase (oxidant production): 30%

SMILES: CN(CC(=O)O)C(=N)N [creatine]
- time to exhaustion (phosphocreatine (PCr); both groups combined): increased
- resting PCr increase (phosphocreatine (PCr); middle-aged group (50-year-olds), P<0.05): 30%
- mean initial PCr resynthesis rate (phosphocreatine (PCr); middle-aged group, P<0.05): increased significantly
- resting PCr increase (phosphocreatine (PCr); young group (30-year-olds), P<0.05): 15%
- skeletal muscle strength and endurance (skeletal muscle): increased
- isokinetic performance and body mass [1]: only small increases
- isometric strength [1]: no effect
- 1- and 12-repetitions maxima, effect of creatine supplementation [2]: no beneficial effect
- safety (about 1.5 g/day to about 25 g/day for at least a year): safe
- adverse effects (athletes, doses up to 75 grams a day for years, aside from weight gain): without known adverse effects

SMILES: COc1cccc2c1C(=O)c1c(O)c3c(c(O)c1C2=O)C[C@@](O)(C(=O)CO)C[C@@H]3O[C@H]1C[C@H](N)[C@H](O)[C@H](C)O1 [doxorubicin]
- mitochondrial oxidant production (cardiac tissue): stimulates
- mtDNA deletions in cardiac tissue (cardiac tissue; cardiac tissue): marked increase

SMILES: O=C(O)CCCC[C@@H]1CCSS1 [R-α-lipoic acid]
- ambulatory activity of aged rats (aged rats; aged rats): triple
- age-related decline in mitochondrial membrane potential (aged rats; supplementation): restore
- age-related decrease in oxygen consumption (aged rats; supplementation): reverse
- age-related increase in oxidants (aged rats; supplementation): significantly lower
- glutathione and ascorbic acid levels (aged rats; supplementation): to youthful levels

SMILES: C[N+](C)(C)C[C@H](O)CC(=O)[O-] [L-carnitine]
- age-related dysfunction of carnitine-acyl-carnitine exchange [3]: slow or reverse

SMILES: COC1=C(OC)C(=O)C(C/C=C(\C)CC/C=C(\C)CC/C=C(\C)CC/C=C(\C)CC/C=C(\C)CC/C=C(\C)CC/C=C(\C)CC/C=C(\C)CC/C=C(\C)CCC=C(C)C)=C(C)C1=O [Example Q10, Coenzyme Q10]
- clinical response [4]: rapidly improved
- peroxyl radical trapping capacity [5]: doubled
- programmed cell death, or apoptosis (apoptosis): appears to block
- dopamine, higher than control diet (striatal nerves): 37%
- more dense neurons than control diet (striatal nerves): 62%
- lifespan (male mice): did not prolong or shorten
- adverse effects [6]: No important adverse effects
- oxidative phosphorylation in skeletal muscles and brains [7]: marked improvement
- tolerance of the senescent myocardium to aerobic and ischemic stress (senescent myocardium): improves the tolerance
- tolerance of the senescent myocardium to aerobic and ischemic stress (human atrial tissue): improves the tolerance
- Q10 levels in kidney, heart and brain (male rats; Q10 supplementation): not affected
- lifespan (male rats; life-long supplementation, rats): did not prolong or shorten
- plasma and liver Q10 levels (male rats; supplemented rats): 2.6-8.4 times higher
- heart functions (heart functions; old rats): improve heart functions
- heart functions (heart functions; young rats): not significantly affect
- effects of doxorubicin (cardiac tissue; cardiac tissue): blocks the effects of doxorubicin

SMILES: CC(=O)O[C@H](CC(=O)[O-])C[N+](C)(C)C [acetyl-L-carnitine]
- age-related dysfunction of carnitine-acyl-carnitine exchange [3]: slow or reverse

SMILES: COc1c(O)c(C)c(C/C=C(\C)CC/C=C(\C)CC/C=C(\C)CC/C=C(\C)CC/C=C(\C)CC/C=C(\C)CC/C=C(\C)CC/C=C(\C)CC/C=C(\C)CCC=C(C)C)c(O)c1OC [ubiquinol-10]
- oxidative damage to DNA of human lymphocytes (human lymphocytes): appears to protect
